Key:
Type in all cases: functional
Bacillus subtilis [1] = test: Antibacterial activity against Bacillus subtilis at 100 ug/well after 24 hrs by agar well diffusion method; settings: read-out: DIZ
[2] = Antifungal activity against Penicillium chrysogenum assessed as inhibition of spore germination at 100 ug/well after 48 hrs by agar well diffusion method
Staphylococcus aureus [3] = test: Antibacterial activity against Staphylococcus aureus at 25 ug/well after 24 hrs by agar well diffusion method; settings: read-out: DIZ
Staphylococcus aureus [4] = test: Antibacterial activity against Staphylococcus aureus at 100 ug/well after 24 hrs by agar well diffusion method; settings: read-out: DIZ
Pseudomonas aeruginosa [5] = test: Antibacterial activity against Pseudomonas aeruginosa at 50 ug/well after 24 hrs by agar well diffusion method; settings: read-out: DIZ
Klebsiella pneumoniae [6] = test: Antibacterial activity against Klebsiella pneumoniae at 12.5 ug/well after 24 hrs by agar well diffusion method; settings: read-out: DIZ
Aspergillus niger [7] = test: Antifungal activity against Aspergillus niger assessed as inhibition of spore germination at 100 ug/well after 48 hrs by agar well diffusion method; settings: read-out: DIZ
Aspergillus niger [8] = test: Antifungal activity against Aspergillus niger assessed as inhibition of spore germination at 25 ug/well after 48 hrs by agar well diffusion method; settings: read-out: DIZ
Pseudomonas aeruginosa [9] = test: Antibacterial activity against Pseudomonas aeruginosa at 25 ug/well after 24 hrs by agar well diffusion method; settings: read-out: DIZ
Bacillus subtilis [10] = test: Antibacterial activity against Bacillus subtilis at 50 ug/well after 24 hrs by agar well diffusion method; settings: read-out: DIZ
Aspergillus niger [11] = test: Antifungal activity against Aspergillus niger assessed as inhibition of spore germination at 50 ug/well after 48 hrs by agar well diffusion method; settings: read-out: DIZ
[12] = Antifungal activity against Penicillium chrysogenum assessed as inhibition of spore germination at 12.5 ug/well after 48 hrs by agar well diffusion method
Pseudomonas aeruginosa [13] = test: Antibacterial activity against Pseudomonas aeruginosa at 100 ug/well after 24 hrs by agar well diffusion method; settings: read-out: DIZ
Klebsiella pneumoniae [14] = test: Antibacterial activity against Klebsiella pneumoniae at 50 ug/well after 24 hrs by agar well diffusion method; settings: read-out: DIZ
[15] = Antifungal activity against Penicillium chrysogenum assessed as inhibition of spore germination at 25 ug/well after 48 hrs by agar well diffusion method
[16] = Antifungal activity against Penicillium chrysogenum assessed as inhibition of spore germination at 50 ug/well after 48 hrs by agar well diffusion method
Staphylococcus aureus [17] = test: Antibacterial activity against Staphylococcus aureus at 50 ug/well after 24 hrs by agar well diffusion method; settings: read-out: DIZ
Klebsiella pneumoniae [18] = test: Antibacterial activity against Klebsiella pneumoniae at 25 ug/well after 24 hrs by agar well diffusion method; settings: read-out: DIZ
Bacillus subtilis [19] = test: Antibacterial activity against Bacillus subtilis at 12.5 ug/well after 24 hrs by agar well diffusion method; settings: read-out: DIZ
Pseudomonas aeruginosa [20] = test: Antibacterial activity against Pseudomonas aeruginosa at 12.5 ug/well after 24 hrs by agar well diffusion method; settings: read-out: DIZ
Klebsiella pneumoniae [21] = test: Antibacterial activity against Klebsiella pneumoniae at 100 ug/well after 24 hrs by agar well diffusion method; settings: read-out: DIZ
Bacillus subtilis [22] = test: Antibacterial activity against Bacillus subtilis at 25 ug/well after 24 hrs by agar well diffusion method; settings: read-out: DIZ
Staphylococcus aureus [23] = test: Antibacterial activity against Staphylococcus aureus at 12.5 ug/well after 24 hrs by agar well diffusion method; settings: read-out: DIZ
Aspergillus niger [24] = test: Antifungal activity against Aspergillus niger assessed as inhibition of spore germination at 12.5 ug/well after 48 hrs by agar well diffusion method; settings: read-out: DIZ

Cc1ccc(-c2c[nH]cc2S(=O)(=O)Cc2nnc(N)s2)cc1
zone of inhibition at 100 µg/disc (Bacillus subtilis [1]): 22 mm
inhibition zone (IZ) [2]: 28 mm
zone of inhibition at 25 µg/disc (Staphylococcus aureus [3]): 17 mm
zone of inhibition at 100 µg/disc (Staphylococcus aureus [4]): 22 mm
zone of inhibition at 50 µg/disc (Pseudomonas aeruginosa [5]): 21 mm
zone of inhibition at 12.5 µg/disc (Klebsiella pneumoniae [6]): 20 mm
zone of inhibition at 100 µg/disc (Aspergillus niger [7]): 15 mm
zone of inhibition at 25 µg/disc (Aspergillus niger [8]): 11 mm
zone of inhibition at 25 µg/disc (Pseudomonas aeruginosa [9]): 19 mm
zone of inhibition at 50 µg/disc (Bacillus subtilis [10]): 20 mm
zone of inhibition at 50 µg/disc (Aspergillus niger [11]): 13 mm
inhibition zone (IZ) [12]: 22 mm
zone of inhibition at 100 µg/disc (Pseudomonas aeruginosa [13]): 23 mm
zone of inhibition at 50 µg/disc (Klebsiella pneumoniae [14]): 24 mm
inhibition zone (IZ) [15]: 24 mm
inhibition zone (IZ) [16]: 26 mm
zone of inhibition at 50 µg/disc (Staphylococcus aureus [17]): 19 mm
zone of inhibition at 25 µg/disc (Klebsiella pneumoniae [18]): 22 mm
zone of inhibition at 12.5 µg/disc (Bacillus subtilis [19]): 18 mm
zone of inhibition at 12.5 µg/disc (Pseudomonas aeruginosa [20]): 17 mm
zone of inhibition at 100 µg/disc (Klebsiella pneumoniae [21]): 26 mm
zone of inhibition at 25 µg/disc (Bacillus subtilis [22]): 19 mm
zone of inhibition at 12.5 µg/disc (Staphylococcus aureus [23]): 15 mm
zone of inhibition at 12.5 µg/disc (Aspergillus niger [24]): 9 mm

Cc1ccc(-c2c[nH]nc2S(=O)(=O)Cc2nnc(N)s2)cc1
zone of inhibition at 100 µg/disc (Bacillus subtilis [1]): 25 mm
inhibition zone (IZ) [2]: 34 mm
zone of inhibition at 25 µg/disc (Staphylococcus aureus [3]): 17 mm
zone of inhibition at 100 µg/disc (Staphylococcus aureus [4]): 20 mm
zone of inhibition at 50 µg/disc (Pseudomonas aeruginosa [5]): 24 mm
zone of inhibition at 12.5 µg/disc (Klebsiella pneumoniae [6]): 22 mm
zone of inhibition at 100 µg/disc (Aspergillus niger [7]): 27 mm
zone of inhibition at 25 µg/disc (Aspergillus niger [8]): 23 mm
zone of inhibition at 25 µg/disc (Pseudomonas aeruginosa [9]): 22 mm
zone of inhibition at 50 µg/disc (Bacillus subtilis [10]): 23 mm
zone of inhibition at 50 µg/disc (Aspergillus niger [11]): 25 mm
inhibition zone (IZ) [12]: 28 mm
zone of inhibition at 100 µg/disc (Pseudomonas aeruginosa [13]): 26 mm
zone of inhibition at 50 µg/disc (Klebsiella pneumoniae [14]): 26 mm
inhibition zone (IZ) [15]: 30 mm
inhibition zone (IZ) [16]: 32 mm
zone of inhibition at 50 µg/disc (Staphylococcus aureus [17]): 18 mm
zone of inhibition at 25 µg/disc (Klebsiella pneumoniae [18]): 24 mm
zone of inhibition at 12.5 µg/disc (Bacillus subtilis [19]): 21 mm
zone of inhibition at 12.5 µg/disc (Pseudomonas aeruginosa [20]): 20 mm
zone of inhibition at 100 µg/disc (Klebsiella pneumoniae [21]): 28 mm
zone of inhibition at 25 µg/disc (Bacillus subtilis [22]): 22 mm
zone of inhibition at 12.5 µg/disc (Staphylococcus aureus [23]): 16 mm
zone of inhibition at 12.5 µg/disc (Aspergillus niger [24]): 21 mm

Nc1nnc(CS(=O)(=O)/C=C\c2ccccc2)o1
zone of inhibition at 100 µg/disc (Bacillus subtilis [1]): 16 mm
inhibition zone (IZ) [2]: 17 mm
zone of inhibition at 25 µg/disc (Staphylococcus aureus [3]): 13 mm
zone of inhibition at 100 µg/disc (Staphylococcus aureus [4]): 18 mm
zone of inhibition at 50 µg/disc (Pseudomonas aeruginosa [5]): 18 mm
zone of inhibition at 12.5 µg/disc (Klebsiella pneumoniae [6]): 15 mm
zone of inhibition at 100 µg/disc (Aspergillus niger [7]): 15 mm
zone of inhibition at 25 µg/disc (Aspergillus niger [8]): 11 mm
zone of inhibition at 25 µg/disc (Pseudomonas aeruginosa [9]): 16 mm
zone of inhibition at 50 µg/disc (Bacillus subtilis [10]): 14 mm
zone of inhibition at 50 µg/disc (Aspergillus niger [11]): 13 mm
inhibition zone (IZ) [12]: 11 mm
zone of inhibition at 100 µg/disc (Pseudomonas aeruginosa [13]): 20 mm
zone of inhibition at 50 µg/disc (Klebsiella pneumoniae [14]): 19 mm
inhibition zone (IZ) [15]: 13 mm
inhibition zone (IZ) [16]: 15 mm
zone of inhibition at 50 µg/disc (Staphylococcus aureus [17]): 15 mm
zone of inhibition at 25 µg/disc (Klebsiella pneumoniae [18]): 17 mm
zone of inhibition at 12.5 µg/disc (Bacillus subtilis [19]): 12 mm
zone of inhibition at 12.5 µg/disc (Pseudomonas aeruginosa [20]): 14 mm
zone of inhibition at 100 µg/disc (Klebsiella pneumoniae [21]): 21 mm
zone of inhibition at 25 µg/disc (Bacillus subtilis [22]): 13 mm
zone of inhibition at 12.5 µg/disc (Staphylococcus aureus [23]): 11 mm
zone of inhibition at 12.5 µg/disc (Aspergillus niger [24]): 9 mm

Nc1nnc(CS(=O)(=O)c2c[nH]cc2-c2ccccc2)s1
zone of inhibition at 100 µg/disc (Bacillus subtilis [1]): 24 mm
inhibition zone (IZ) [2]: 31 mm
zone of inhibition at 25 µg/disc (Staphylococcus aureus [3]): 19 mm
zone of inhibition at 100 µg/disc (Staphylococcus aureus [4]): 24 mm
zone of inhibition at 50 µg/disc (Pseudomonas aeruginosa [5]): 23 mm
zone of inhibition at 12.5 µg/disc (Klebsiella pneumoniae [6]): 26 mm
zone of inhibition at 100 µg/disc (Aspergillus niger [7]): 18 mm
zone of inhibition at 25 µg/disc (Aspergillus niger [8]): 14 mm
zone of inhibition at 25 µg/disc (Pseudomonas aeruginosa [9]): 21 mm
zone of inhibition at 50 µg/disc (Bacillus subtilis [10]): 22 mm
zone of inhibition at 50 µg/disc (Aspergillus niger [11]): 16 mm
inhibition zone (IZ) [12]: 25 mm
zone of inhibition at 100 µg/disc (Pseudomonas aeruginosa [13]): 25 mm
zone of inhibition at 50 µg/disc (Klebsiella pneumoniae [14]): 29 mm
inhibition zone (IZ) [15]: 27 mm
inhibition zone (IZ) [16]: 29 mm
zone of inhibition at 50 µg/disc (Staphylococcus aureus [17]): 22 mm
zone of inhibition at 25 µg/disc (Klebsiella pneumoniae [18]): 27 mm
zone of inhibition at 12.5 µg/disc (Bacillus subtilis [19]): 20 mm
zone of inhibition at 12.5 µg/disc (Pseudomonas aeruginosa [20]): 19 mm
zone of inhibition at 100 µg/disc (Klebsiella pneumoniae [21]): 31 mm
zone of inhibition at 25 µg/disc (Bacillus subtilis [22]): 21 mm
zone of inhibition at 12.5 µg/disc (Staphylococcus aureus [23]): 17 mm
zone of inhibition at 12.5 µg/disc (Aspergillus niger [24]): 12 mm
